This is an account of results in ChEMBL document CHEMBL1135235, “Structure-activity relationships of oxime neurokinin antagonists: oxime modifications” (Bioorg Med Chem Lett, 2002).

Data set [1] deals with T1, Substance-P receptor (Homo sapiens, UniProt P25103). As to the kind of experiment: The compound was evaluated for the binding affinity against recombinant human Tachykinin receptor 1 in CHO cells using [3H]-Sar SP as a radioligand. Format: cell-based. As to conditions: concentration not given here.
T1 sequence (P25103 whole entry): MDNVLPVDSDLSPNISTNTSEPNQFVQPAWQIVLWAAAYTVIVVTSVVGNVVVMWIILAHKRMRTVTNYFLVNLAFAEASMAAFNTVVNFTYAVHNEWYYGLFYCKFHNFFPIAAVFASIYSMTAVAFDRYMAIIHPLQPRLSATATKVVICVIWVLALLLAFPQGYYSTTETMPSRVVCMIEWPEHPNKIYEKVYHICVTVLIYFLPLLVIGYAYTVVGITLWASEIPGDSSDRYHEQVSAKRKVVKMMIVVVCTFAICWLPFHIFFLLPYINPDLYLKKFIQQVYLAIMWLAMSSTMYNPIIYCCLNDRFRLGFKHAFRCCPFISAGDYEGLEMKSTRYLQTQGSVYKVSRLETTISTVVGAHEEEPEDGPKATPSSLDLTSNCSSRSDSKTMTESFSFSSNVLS
Data set [2] concerns the target T2, Substance-K receptor (Homo sapiens) (UniProt P21452).
T2 sequence (whole entry): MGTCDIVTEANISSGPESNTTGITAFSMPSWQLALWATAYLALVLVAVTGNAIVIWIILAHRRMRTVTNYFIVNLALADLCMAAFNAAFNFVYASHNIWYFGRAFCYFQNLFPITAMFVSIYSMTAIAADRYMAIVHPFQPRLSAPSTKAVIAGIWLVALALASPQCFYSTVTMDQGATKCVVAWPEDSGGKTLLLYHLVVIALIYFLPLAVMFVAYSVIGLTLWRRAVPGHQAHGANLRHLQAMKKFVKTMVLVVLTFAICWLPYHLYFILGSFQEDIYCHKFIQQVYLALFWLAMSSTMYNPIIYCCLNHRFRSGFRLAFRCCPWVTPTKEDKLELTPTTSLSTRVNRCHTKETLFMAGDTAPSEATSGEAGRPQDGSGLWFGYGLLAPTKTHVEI
As to the kind of experiment: (§1) Binding affinity against recombinant human tachykinin receptor 2 in CHO cells using [3H]NKA as a radioligand. The format is cell-based. The arrangement: concentration or dose not given beside the values. As to conditions: concentration not given here.

The target of data set [3] is T1, Substance-P receptor. As to the kind of experiment: Binding affinity against recombinant human tachykinin receptor 1 in CHO cells using [3H]-Sar SP as a radioligand. The format is cell-based.
In another data set the target is T3, Substance-K receptor (Homo sapiens, UniProt P21452).
T3 sequence (P21452 whole entry): T2 sequence (whole entry)
The data set is described as §1. Format: cell-based.

The nature of data set [4]: Area under curve was determined at a dose 30 mpk administered orally. Format: ADME, organism-based. As to conditions: rat, in vivo, po, 30 mg/kg.
Data set [5] deals with T4, Substance-K receptor (Cavia porcellus) (UniProt Q64077).
T4 sequence (whole entry): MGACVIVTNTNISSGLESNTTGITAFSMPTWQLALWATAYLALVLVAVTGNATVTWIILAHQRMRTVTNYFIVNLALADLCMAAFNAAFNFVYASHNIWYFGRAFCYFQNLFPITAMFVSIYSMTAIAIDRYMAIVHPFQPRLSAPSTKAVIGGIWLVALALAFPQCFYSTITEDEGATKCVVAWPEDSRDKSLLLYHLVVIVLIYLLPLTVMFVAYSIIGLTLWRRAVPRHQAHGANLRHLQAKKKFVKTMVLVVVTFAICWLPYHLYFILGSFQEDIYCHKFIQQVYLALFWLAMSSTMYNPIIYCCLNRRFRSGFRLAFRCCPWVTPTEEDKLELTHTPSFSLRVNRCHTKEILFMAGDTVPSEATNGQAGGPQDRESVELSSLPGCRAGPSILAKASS
As to the kind of experiment: Inhibitory activity against Tachykinin receptor 2 evaluated as beta-ala-NKA (410) induced bronchospasm inhibition after a oral dose of 10 mpk in guinea pig. Format: functional.

pKi: −log10 of the molar value.

As usually defined, the inhibition is the drop in the measured response relative to a control, in per cent. The term pKi denotes the negative decadic logarithm of the Ki, by convention in mol/L. What is called AUC is concentration integrated over time.

On to `CC(C)(C)O/N=C(\COCc1cc(C(F)(F)F)cc(C(F)(F)F)c1)C(CCN1CCC(O)(c2ccccc2)CC1)c1ccc(Cl)c(Cl)c1` (stereo not drawn), for which the inhibition at Substance-P receptor [1] was determined as 46%; in data set [2] it was 28%.

In the case of `CN(C/C(=N\OCC(=N)NO)C(CCN1CCC(N2CCCCC2=O)CC1)c1ccc(Cl)c(Cl)c1)C(=O)c1cc(Cl)cc(Cl)c1` (stereo not drawn), the negative logarithm of the Ki (pKi) on Substance-P receptor [3] and at Substance-K receptor was 9.15 throughout. The compound also returned an exposure (AUC) in data set [4] of 3 µM·h. Also, in data set [5], the inhibition was 94%.

In the case of `CC(C)CO/N=C(\COCc1cc(C(F)(F)F)cc(C(F)(F)F)c1)C(CCN1CCC(O)(c2ccccc2)CC1)c1ccc(Cl)c(Cl)c1` (stereo not drawn), the results for the inhibition (on Substance-P receptor [1]; in data set [2]) were 43% and 11%, respectively.
